We go through 17 compounds from patent US8906913B2, “Azabicyclohexanes” (Panacea Biotec Limited, priority 2009, dated 2014).

What all share (assay): In-vitro antibacterial activity, broth microdilution MIC
What all share (type): cell-based
In general terms: Broth dilution looks for growth in wells or tubes with falling amounts of substance.

The subject of assay [1] is Staphylococcus aureus ATCC 29213 MSSA (Methicillin sensitive). The conditions noted are these: Table 7, S. aureus MSSA, broth microdilution, 35±2° C., 16-20 h, read-out: MIC ATCC 29213. Here is the method:
(§1) The in-vitro antibacterial activity of the compounds of the present invention (as described in Table 7) was determined by a broth microdilution following the guidelines prescribed by the Clinical and Laboratory Standards Institute (CLSI). This method is described in the CLSI Document M7-A7, Vol. 26, No. 2, “Methods for Dilution Antimicrobial Susceptibility Test for Bacteria that Grow Aerobically; Approved Standard-Seventh Edition”, which is incorporated herein by reference. Minimum Inhibitory Concentration (MIC) is defined as the minimum concentration of test compound which inhibits the growth of bacteria as visible or seen by the naked eye. This test can also be carried out by agar dilution method.
(§2) The compounds of the present invention were tested against a panel of standard microorganisms obtained from ATCC (American type culture collection). Linezolid was used as comparator in all the tests.
(§3) In the broth microdilution method, the compound was dissolved in dimethylsulfoxide and two fold serial dilutions were carried out in 96 well microtitre plates. The inoculum was prepared by adjusting the turbidity of actively growing broth culture and added to the wells to obtain a final bacterial count of ˜2-5×10^4 CFU/well. The microtitre plates were incubated at 35±2° C. for 16-20 h and then read visually.

The test system of assay [2] is Enterococcus faecalis ATCC 29212 Vancomycin Sensitive. The conditions noted are these: ATCC29212, Table 7, E. faecalis vancomycin sensitive, broth microdilution, 35±2° C., 16-20 h, read-out: MIC ATCC 29212. Here is the method:
as §1, §2, §3

Assay [3] concerns Enterococcus faecium ATCC 700221 VRE (Vancomycin resistant E. faecium). The conditions noted are these: Table 7, broth microdilution, 35±2° C., 16-20 h, read-out: MIC ATTC 700221. Here is the method: as §1, §2, §3
Assay [4] has as its system Staphylococcus aureus ATCC 33591 MRSA (Methicillin resistant). The following applies: Table 7, S. aureus MRSA, broth microdilution, 35±2° C., 16-20 h, read-out: MIC ATCC 33591. Here is the method:
as §1, §2, §3

Values after ≈ are worked out from the molar mass of the structure shown.

For orientation: MIC means the smallest concentration in the dilution series that meets the test's criterion for growth inhibition. Turning to `CC(=O)NC[C@H]1CN(c2ccc(C34CC3CN(C(C)=O)C4)c(F)c2)C(=O)O1` (some centres unmarked), the MIC in assay [1] was determined as 1 µg/mL (≈ 2.66 µM); in assay [2], 1 µg/mL (≈ 2.66 µM); in assay [3], 0.5 µg/mL (≈ 1.33 µM); in assay [4], 0.5 µg/mL (≈ 1.33 µM).

For the compound `CC(=O)NC[C@H]1CN(c2ccc(C34CC3CN(C(=O)C(=O)c3ccco3)C4)cc2)C(=O)O1` (some centres unmarked), the MIC in assay [1] was 1 µg/mL (≈ 2.29 µM); in assay [2], 1 µg/mL (≈ 2.29 µM); in assay [3] it was 0.5 µg/mL (≈ 1.14 µM); in assay [4], 1 µg/mL (≈ 2.29 µM).

In the case of `CC(=O)NC[C@H]1CN(c2ccc(C34CC3CN(C(=O)C(F)(F)F)C4)cc2)C(=O)O1` (some centres unmarked), the MIC amounted to 2 µg/mL (≈ 4.86 µM) in assay [1], 2 µg/mL (≈ 4.86 µM) in assay [2], 1 µg/mL (≈ 2.43 µM) in assay [3] and 2 µg/mL (≈ 4.86 µM) in assay [4].

Consider `CC(=O)NC[C@H]1CN(c2ccc(C34CC3CN(c3ccc(F)nc3)C4)cc2)C(=O)O1` (some centres unmarked), for which the MIC was found to be 1 µg/mL (≈ 2.44 µM) in assay [1], 1 µg/mL (≈ 2.44 µM) in assay [2], 0.5 µg/mL (≈ 1.22 µM) in assay [3] and 0.5 µg/mL (≈ 1.22 µM) in assay [4].

Turning to `CC(=O)NC[C@H]1CN(c2ccc(C34CC3CN(C(=O)c3cn5cccnc5n3)C4)cc2)C(=O)O1` (some centres unmarked), the MIC amounted to 2 µg/mL (≈ 4.34 µM) in assay [1], 1 µg/mL (≈ 2.17 µM) in assay [2], 1 µg/mL (≈ 2.17 µM) in assay [3] and 2 µg/mL (≈ 4.34 µM) in assay [4].

`CC(=O)NC[C@H]1CN(c2ccc(C34CC3CN(C(=O)OC(C)C)C4)cc2)C(=O)O1` (some centres unmarked): the MIC in assay [1] was found to be 2 µg/mL (≈ 4.98 µM); in assay [2] it was 2 µg/mL (≈ 4.98 µM); in assay [3], 1 µg/mL (≈ 2.49 µM); in assay [4], 1 µg/mL (≈ 2.49 µM).

Turning to `COC(=O)NC[C@H]1CN(c2ccc(C34CC3CN(C(=O)OC)C4)cc2)C(=O)O1` (some centres unmarked), the MIC in assay [1], in assay [2], in assay [3] and in assay [4] was 1 µg/mL (≈ 2.57 µM) each time.

Turning to `COC(=O)N1C[C@@H]2C[C@]2(c2ccc(N3C[C@H](CNC(C)=O)OC3=O)cc2)C1`, the MIC in assay [1] came out at 1 µg/mL (≈ 2.68 µM); in assay [2] it was 1 µg/mL (≈ 2.68 µM); in assay [3] it was 0.5 µg/mL (≈ 1.34 µM); in assay [4] it was 0.5 µg/mL (≈ 1.34 µM).

As for `COC(=O)N1CC2CC2(c2ccc(N3C[C@H](CNC(C)=O)OC3=O)cc2F)C1` (some centres unmarked), the MIC in assay [1] turned out to be 1 µg/mL (≈ 2.55 µM); in assay [2], 0.5 µg/mL (≈ 1.28 µM); in assay [3], 0.5 µg/mL (≈ 1.28 µM); in assay [4], 0.5 µg/mL (≈ 1.28 µM).

As to `CC(=O)NC[C@H]1CN(c2ccc(C34CC3CN(C(=O)CCc3ccccc3)C4)cc2)C(=O)O1` (some centres unmarked), the MIC in assay [1] was 1 µg/mL (≈ 2.23 µM); in assay [2], 1 µg/mL (≈ 2.23 µM); in assay [3], 0.5 µg/mL (≈ 1.12 µM); in assay [4], 1 µg/mL (≈ 2.23 µM).

In the case of `CC(=O)NC[C@H]1CN(c2ccc(C34CC3CN(C(=O)c3cccnc3)C4)cc2)C(=O)O1` (some centres unmarked), the MIC was 2 µg/mL (≈ 4.76 µM) in assay [1], 2 µg/mL (≈ 4.76 µM) in assay [2], 2 µg/mL (≈ 4.76 µM) in assay [3] and 1 µg/mL (≈ 2.38 µM) in assay [4].

With `CC(=O)NC[C@H]1CN(c2ccc(C34CC3CN(C(C)=O)C4)cc2)C(=O)O1` (some centres unmarked) [drawing 482], the MIC in assay [1] came out at 2 µg/mL (≈ 5.6 µM); in assay [2] it was 2 µg/mL (≈ 5.6 µM); in assay [3], 2 µg/mL (≈ 5.6 µM); in assay [4], 1 µg/mL (≈ 2.8 µM).

For the compound `CC(=O)NC[C@H]1CN(c2ccc(C34CC3CN(C(=O)CO)C4)cc2)C(=O)O1` (some centres unmarked), the MIC in assay [1], in assay [2], in assay [3] and in assay [4] was 0.5 µg/mL (≈ 1.34 µM) throughout.

Turning to `COC(=O)NC[C@H]1CN(c2ccc(C34CC3CN(C(C)=O)C4)cc2)C(=O)O1` (some centres unmarked), the MIC in assay [1] worked out at 2 µg/mL (≈ 5.36 µM); in assay [2], 2 µg/mL (≈ 5.36 µM); in assay [3] it was 1 µg/mL (≈ 2.68 µM); in assay [4], 1 µg/mL (≈ 2.68 µM).

On to `CC(=O)NC[C@H]1CN(c2ccc(C34CC3CN(C(=O)N(C)C)C4)cc2)C(=O)O1` (some centres unmarked), for which the MIC in assay [1] is 4 µg/mL (≈ 10.4 µM); in assay [2], 0.5 µg/mL (≈ 1.29 µM); in assay [3], 0.25 µg/mL (≈ 0.647 µM); in assay [4], 1 µg/mL (≈ 2.59 µM).

With `CC(=O)NC[C@H]1CN(c2ccc(C34CC3CN(c3nc5ccccc5s3)C4)cc2)C(=O)O1` (some centres unmarked), the MIC in assay [1] came out at 1 µg/mL (≈ 2.23 µM); in assay [2] it was 1 µg/mL (≈ 2.23 µM); in assay [3] it was 0.25 µg/mL (≈ 0.557 µM); in assay [4], 0.5 µg/mL (≈ 1.11 µM).

For `COC(=O)N1CC2CC2(c2ccc(N3C[C@H](Cn4ccnn4)OC3=O)cc2)C1` (some centres unmarked), the MIC turned out to be 1 µg/mL (≈ 2.61 µM) in assay [1], 2 µg/mL (≈ 5.22 µM) in assay [2], 1 µg/mL (≈ 2.61 µM) in assay [3] and 0.5 µg/mL (≈ 1.3 µM) in assay [4].
